Data taken from patent US20230081390A1, “INHIBITORS OF RAF KINASES” (Kinnate Biopharma Inc., priority 2019, published 2023).

Target: human RAF1 (Homo sapiens, UniProt P04049)
Assay: Protein kinase assay (33P-ATP filter binding), human RAF1, 10-dose IC50
Assay type: biochemical
Settings: MEK1 (K97R) substrate 3 micromolar, ATP 10 micromolar, read-out: RAF-1 IC50
In short: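 Radiometric filter-binding format: 10 µM ATP, 3 µM MEK1 (K97R) as substrate for human RAF1, 2 hr at room temperature in 20 mM HEPES pH 7.5 with 10 mM MgCl2. Compounds were dispensed acoustically from DMSO. IC50 came from percent kinase activity relative to vehicle over a 10-dose series.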

human RAF1, sequence (P04049 whole entry): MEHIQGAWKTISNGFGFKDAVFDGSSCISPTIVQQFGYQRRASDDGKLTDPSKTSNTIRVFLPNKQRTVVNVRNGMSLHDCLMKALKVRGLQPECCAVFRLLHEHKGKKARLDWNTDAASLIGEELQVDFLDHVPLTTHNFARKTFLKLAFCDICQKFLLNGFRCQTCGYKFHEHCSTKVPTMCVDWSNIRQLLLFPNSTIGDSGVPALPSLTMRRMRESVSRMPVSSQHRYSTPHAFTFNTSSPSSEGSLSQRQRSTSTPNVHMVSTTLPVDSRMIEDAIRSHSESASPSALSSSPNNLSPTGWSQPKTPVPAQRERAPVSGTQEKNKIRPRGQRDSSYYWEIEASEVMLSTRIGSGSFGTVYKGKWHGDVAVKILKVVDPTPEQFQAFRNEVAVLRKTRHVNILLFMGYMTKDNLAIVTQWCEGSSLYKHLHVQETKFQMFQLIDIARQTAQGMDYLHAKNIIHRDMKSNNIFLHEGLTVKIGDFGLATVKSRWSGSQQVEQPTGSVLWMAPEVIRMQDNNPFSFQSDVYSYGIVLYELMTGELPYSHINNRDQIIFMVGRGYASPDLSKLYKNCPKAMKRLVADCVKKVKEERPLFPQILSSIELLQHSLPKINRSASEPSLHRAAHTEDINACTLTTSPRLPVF

SMILES	IC50 [nM]
Cc1cc(F)c(NC(=O)N2CC[C@H](C(F)(F)F)C2)cc1-c1cnc(OCCO)c(N2CCOCC2)c1 [Example 13, (3S)-N-[2-fluoro-5-[6-(2-hydroxyethoxy)-5-(morpholin-4-yl)pyridin-3-yl]-4-methylphenyl]-3-(trifluoromethyl)pyrrolidine-1-carboxamide]	< 10
Cc1ccc(NC(=O)N2CC[C@H](OC(F)F)C2)cc1-c1cc(O[C@H](C)[C@@H](C)O)nc(N2CCOCC2)c1 [Example 174, (S)-3-(difluoromethoxy)-N-(3-(2-(((2R,3R)-3-hydroxybutan-2-yl)oxy)-6-morpholinopyridin-4-yl)-4-methylphenyl)pyrrolidine-1-carboxamide]	< 10
Cc1cc(F)c(NC(=O)NC(C)CC(F)(F)F)cc1-c1cc(OCCO)nc(N2CCOCC2)c1 (stereo not drawn) [Example 57, 1-[2-fluoro-5-[2-(2-hydroxyethoxy)-6-(morpholin-4-yl)pyridin-4-yl]-4-methylphenyl]-3-(4,4,4-trifluorobutan-2-yl)urea]	< 10
Cc1ccc(NC(=O)N2CCC(C3CC3(F)F)C2)cc1-c1cc(OCCO)nc(N2CCOCC2)c1 (stereo not drawn) [Example 114, 3-(2,2-difluorocyclopropyl)-N-[3-[2-(2-hydroxyethoxy)-6-(morpholin-4-yl)pyridin-4-yl]-4-methylphenyl]pyrrolidine-1-carboxamide]	< 10
Cc1ccc(NC(=O)N2CC[C@H](OC(F)(F)F)C2)cc1-c1cc(OC(C)(C)CO)nc(N2CCOCC2)c1 [Example 170, (3S)-N-(3-[2-[(1-hydroxy-2-methylpropan-2-yl)oxy]-6-(morpholin-4-yl)pyridin-4-yl]-4-methylphenyl)-3-(trifluoromethoxy)pyrrolidine-1-carboxamide]	< 10
Cc1cc(F)c(NC(=O)NCC(F)(F)C(F)(F)F)cc1-c1cc(OCCO)nc(N2CCOCC2)c1 [Example 35, 1-[2-fluoro-5-[2-(2-hydroxyethoxy)-6-(morpholin-4-yl)pyridin-4-yl]-4-methylphenyl]-3-(2,2,3,3,3-pentafluoropropyl)urea]	< 10
Cc1ccc(NC(=O)N2CCC(CC(F)(F)F)C2)cc1-c1cc(OCC(C)(C)CO)nc(N2CCOCC2)c1 (stereo not drawn) [Example 196, N-(3-(2-(3-hydroxy-2,2-dimethylpropoxy)-6-morpholinopyridin-4-yl)-4-methylphenyl)-3-(2,2,2-trifluoroethyl)pyrrolidine-1-carboxamide]	< 10
Cc1ccc(NC(=O)N2CCC(CC(F)(F)F)C2)cc1-c1cc(OCCCO)nc(N2CCOCC2)c1 (stereo not drawn) [Example 189, N-(3-(2-(3-hydroxypropoxy)-6-morpholinopyridin-4-yl)-4-methylphenyl)-3-(2,2,2-trifluoroethyl)pyrrolidine-1-carboxamide]	< 10
Cc1cc(F)c(NC(=O)N2CCC(C(C)C(F)(F)F)C2)cc1-c1cc(OCCO)nc(N2CCOCC2)c1 (single isomer, unassigned) [Example 101, N-[2-fluoro-5-[2-(2-hydroxyethoxy)-6-(morpholin-4-yl)pyridin-4-yl]-4-methylphenyl]-3-(1,1,1-trifluoropropan-2-yl)pyrrolidine-1-carboxamide]	< 10
Cc1ccc(NC(=O)N2CCC(CC(F)(F)F)C2)cc1-c1cc(OC2CCN(C)CC2)nc(N2CCOCC2)c1 (stereo not drawn) [Example 190, N-(4-methyl-3-(2-((1-methylpiperidin-4-yl)oxy)-6-morpholinopyridin-4-yl)phenyl)-3-(2,2,2-trifluoroethyl)pyrrolidine-1-carboxamide]	< 10
Cc1ccc(NC(=O)Nc2cnn(C(C)C)c2)cc1-c1cc(OCCO)nc(N2CCOCC2)c1 [Example 139, 1-[3-[2-(2-hydroxyethoxy)-6-(morpholin-4-yl)pyridin-4-yl]-4-methylphenyl]-3-(1-isopropylpyrazol-4-yl)urea]	< 10
Cc1ccc(NC(=O)n2ccc(C(C)(C)C)c2)cc1-c1cc(OCCO)nc(N2CCOCC2)c1 [Example 173, 3-(tert-butyl)-N-(3-(2-(2-hydroxyethoxy)-6-morpholinopyridin-4-yl)-4-methylphenyl)-1H-pyrrole-1-carboxamide]	< 10
Cc1ccc(NC(=O)N2CC[C@H](SC(F)(F)F)C2)cc1-c1cnc(OC2CCOCC2)c(N2CCOCC2)c1 [Example 132, (3S)-N-[4-methyl-3-[5-(morpholin-4-yl)-6-(oxan-4-yloxy)pyridin-3-yl]phenyl]-3-[(trifluoromethyl)sulfanyl]pyrrolidine-1-carboxamide]	< 10
Cc1ccc(NC(=O)N2CC[C@H](OC(F)(F)F)C2)cc1-c1cnc(OC2CCOCC2)c(N2CCOCC2)c1 [Example 129, (3S)-N-[4-methyl-3-[5-(morpholin-4-yl)-6-(oxan-4-yloxy)pyridin-3-yl]phenyl]-3-(trifluoromethoxy)pyrrolidine-1-carboxamide]	< 10
Cc1cc(F)c(NC(=O)N2CCCC(O)(C(F)(F)F)C2)cc1-c1cc(OCCO)nc(N2CCOCC2)c1 (stereo not drawn) [Example 25, N-(2-fluoro-5-(2-(2-hydroxyethoxy)-6-morpholinopyridin-4-yl)-4-methylphenyl)-3-hydroxy-3-(trifluoromethyl)piperidine-1-carboxamide]	10 to 100
C/C(=C1\CCN(C(=O)Nc2cc(-c3cc(OCCO)nc(N4CCOCC4)c3)c(C)cc2F)C1)C(F)(F)F [Example 94, (3Z)-N-[2-fluoro-5-[2-(2-hydroxyethoxy)-6-(morpholin-4-yl)pyridin-4-yl]-4-methylphenyl]-3-(1,1,1-trifluoropropan-2-ylidene)pyrrolidine-1-carboxamide]	< 10
Cc1cc(F)c(NC(=O)N2CC[C@H](C(F)(F)F)C2)cc1-c1cc(OCCO)nc(N2CCOC[C@H]2C)c1 (single isomer, unassigned) [Example 30]	< 10
Cc1cc(F)c(NC(=O)N2CC[C@@H](CC(F)(F)F)C2)cc1-c1cc(O[C@H](C)CO)nc(N2CCOCC2)c1 (single isomer, unassigned) [Example 182]	< 10

The remaining lines, values ahead:

IC50 [nM]	SMILES
< 10	Cc1ccc(NC(=O)N2CC(O)C(CC(F)(F)F)C2)cc1-c1cc(OCCO)nc(N2CCOCC2)c1 (stereo not drawn) [Example 148, 3-hydroxy-N-[3-[2-(2-hydroxyethoxy)-6-(morpholin-4-yl)pyridin-4-yl]-4-methylphenyl]-4-(2,2,2-trifluoroethyl)pyrrolidine-1-carboxamide]
< 10	Cc1cc(F)c(NC(=O)N2CC[C@H](OC(F)(F)F)C2)cc1-c1cc(OCCO)nc(N2CCOCC2)c1 (single isomer, unassigned) [Example 78]
< 10	Cc1cc(F)c(NC(=O)N2C[C@H](C(F)(F)F)C[C@@H]2C)cc1-c1cc(OCCO)nc(N2CCOCC2)c1 (single isomer, unassigned) [Example 60, (cis)-N-[2-fluoro-5-[2-(2-hydroxyethoxy)-6-(morpholin-4-yl)pyridin-4-yl]-4-methylphenyl]-2-methyl-4-(trifluoromethyl)pyrrolidine-1-carboxamide]
< 10	Cc1ccc(NC(=O)N2CC[C@@H](OC(F)(F)F)C2)cc1-c1cc(OC2CNC2)nc(N2CCOCC2)c1 [Example 205, (R)-N-(3-(2-(azetidin-3-yloxy)-6-morpholinopyridin-4-yl)-4-methylphenyl)-3-(trifluoromethoxy)pyrrolidine-1-carboxamide]
< 10	Cc1ccc(NC(=O)Nc2cnn(C(F)(F)F)c2)cc1-c1cc(OCCO)nc(N2CCOCC2)c1 [Example 125, 1-[3-[2-(2-hydroxyethoxy)-6-(morpholin-4-yl)pyridin-4-yl]-4-methylphenyl]-3-[1-(trifluoromethyl)pyrazol-4-yl]urea]
< 10	Cc1cc(F)c(NC(=O)N2CCCC3C2C3C(F)(F)F)cc1-c1cc(OCCO)nc(N2CCOCC2)c1 (single isomer, unassigned) [Example 109, N-[2-fluoro-5-[2-(2-hydroxyethoxy)-6-(morpholin-4-yl)pyridin-4-yl]-4-methylphenyl]-7-(trifluoromethyl)-2-azabicyclo[4.1.0]heptane-2-carboxamide]
< 10	Cc1ccc(NC(=O)N2CC[C@H](SC(F)(F)F)C2)cc1-c1cc(OCCO)nc(N2CCOCC2)c1 (single isomer, unassigned) [Example 118]
1000 to 10000	Cc1cc(F)c(NC(=O)N2CCCC3C2C3C(F)(F)F)cc1-c1cc(OCCO)nc(N2CCOCC2)c1 (single isomer, unassigned) [Example 108, N-[2-fluoro-5-[2-(2-hydroxyethoxy)-6-(morpholin-4-yl)pyridin-4-yl]-4-methylphenyl]-7-(trifluoromethyl)-2-azabicyclo[4.1.0]heptane-2-carboxamide]
< 10	Cc1ccc(NC(=O)N(C)c2cnn(C(F)(F)F)c2)cc1-c1cc(OCCO)nc(N2CCOCC2)c1 [Example 141, 1-[3-[2-(2-hydroxyethoxy)-6-(morpholin-4-yl)pyridin-4-yl]-4-methylphenyl]-3-methyl-3-[1-(trifluoromethyl)pyrazol-4-yl]urea]
< 10	Cc1cc(F)c(NC(=O)N2CC3CCC3(C(F)(F)F)C2)cc1-c1cc(OCCO)nc(N2CCOCC2)c1 (single isomer, unassigned) [Example 83, N-[2-fluoro-5-[2-(2-hydroxyethoxy)-6-(morpholin-4-yl)pyridin-4-yl]-4-methylphenyl]-1-(trifluoromethyl)-3-azabicyclo[3.2.0]heptane-3-carboxamide]
< 10	Cc1ccc(NC(=O)N2CCC(S(=O)(=O)C(F)(F)F)C2)cc1-c1cc(OCCO)nc(N2CCOCC2)c1 (stereo not drawn) [Example 134, N-[3-[2-(2-hydroxyethoxy)-6-(morpholin-4-yl)pyridin-4-yl]-4-methylphenyl]-3-trifluoromethanesulfonylpyrrolidine-1-carboxamide]
< 10	Cc1cc(F)c(NC(=O)N2CCC(C(F)(F)F)C2C)cc1-c1cc(OCCO)nc(N2CCOCC2)c1 (single isomer, unassigned) [Example 66, N-[2-fluoro-5-[2-(2-hydroxyethoxy)-6-(morpholin-4-yl)pyridin-4-yl]-4-methylphenyl]-2-methyl-3-(trifluoromethyl)pyrrolidine-1-carboxamide]
